Data as given in patent publication US20200197544A1, “JCV IMAGING METHODS AND COMPOSITIONS” (BIOGEN MA Inc., priority 2017, published 2020).
Entries after “also recorded” stand apart in the source; their conditions may differ.

Tested on: JCV-infected human astrocytes
Assay: ^3H-FLT uptake in uninfected and JCV-infected human astrocytes (TK1 activity)
Format: cell-based
Conditions: JCV-infected astrocytes compared to uninfected astrocytes; uptake as a measure of TK1 activity
Description: The activity of TK1 in uninfected and JCV-infected human astrocytes was determined by analyzing the cellular uptake of ^3H-FLT, a radiolabeled TK1 substrate.

Cc1cn([C@H]2C[C@H](F)[C@@H](CO)O2)c(=O)[nH]c1=O [^3H-FLT]
^3H-FLT uptake: higher in JCV-infected astrocytes as compared to uninfected astrocytes; also recorded: elevated levels of TK1 activity, as determined by uptake of ^3H-FLT, compared to uninfected cells
